Assay results taken from ChEMBL document CHEMBL1201862, “PubChem BioAssay data set” (2004).
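Dose response: 5 concentrations. Exposure: 48 h. Format: 96-well plates. Endpoint: linear interpolation; highest concentration if not reached. GI50 = concentration required for 50% inhibition of growth.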 Active and inactive are the calls of the source. Cut-off read from the data, not from the text of the source: active = GI50 up to about 1.1 µM and inactive = higher.

Assays:
Assay in all cases: NCI anticancer screen, dose series, 48 h
OVCAR-4 = test system: OVCAR-4
LOX IMVI = test system: LOX IMVI
SN12C = test system: SN12C
SK-MEL-28 = test system: SK-MEL-28
SNB-19 = test system: SNB-19
HT-29 = test system: HT-29
EKVX = test system: EKVX
786-0 = test system: 786-0
COLO 205 = test system: COLO 205
TK-10 = test system: TK-10
DMS-273 = test system: DMS-273
SF-295 = test system: SF-295
ACHN = test system: ACHN
KM-20L2 = test system: KM-20L2
HCC 2998 = test system: HCC 2998
A498 = test system: A498
OVCAR-5 = test system: OVCAR-5
SR = test system: SR
SF-539 = test system: SF-539
OVCAR-8 = test system: OVCAR-8
SNB-78 = test system: SNB-78
A549 = test system: A549
SK-OV-3 = test system: SK-OV-3
M14 = test system: M14
SF-268 = test system: SF-268
SW-620 = test system: SW-620
SNB-75 = test system: SNB-75
DMS-114 = test system: DMS-114
LXFL 529 = test system: LXFL 529
HCT-15 = test system: HCT-15
NCI-H23 = test system: NCI-H23
UACC-257 = test system: UACC-257
SK-MEL-2 = test system: SK-MEL-2
HCT-116 = test system: HCT-116
K562 = test system: K562
UACC-62 = test system: UACC-62
NCI-H460 = test system: NCI-H460
MOLT-4 = test system: MOLT-4
CCRF-CEM = test system: CCRF-CEM
DLD-1 = test system: DLD-1
U-251 = test system: U-251
HL-60 = test system: HL-60
KM12 = test system: KM12
UO-31 = test system: UO-31
HOP-92 = test system: HOP-92
RPMI-8226 = test system: RPMI-8226
CAKI-1 = test system: CAKI-1
Malme-3M = test system: Malme-3M
SK-MEL-5 = test system: SK-MEL-5
HOP-62 = test system: HOP-62
NCI-H522 = test system: NCI-H522
RXF 393 = test system: RXF 393
IGROV-1 = test system: IGROV-1
HOP-18 = test system: HOP-18
M19-MEL = test system: M19-MEL
OVCAR-3 = test system: OVCAR-3
NCI-H226 = test system: NCI-H226
XF498 = test system: XF498

O=Cc1cc2c(cc1-c1cc3c(cc1C=O)OCO3)OCO2
GI50 (OVCAR-4): > 100 µM (inactive) | GI50 (LOX IMVI): 23.3 µM (inactive) | GI50 (SN12C): > 100 µM (inactive) | GI50 (SK-MEL-28): 95.1 µM (inactive) | GI50 (SNB-19): 87.9 µM (inactive) | GI50 (HT-29): 90.2 µM (inactive) | GI50 (EKVX): > 100 µM (inactive) | GI50 (786-0): > 100 µM (inactive) | GI50 (COLO 205): 39.5 µM (inactive) | GI50 (TK-10): > 100 µM (inactive) | GI50 (DMS-273): 64.3 µM (inactive) | GI50 (SF-295): > 100 µM (inactive) | GI50 (ACHN): 71.8 µM (inactive) | GI50 (KM-20L2): > 100 µM (inactive) | GI50 (HCC 2998): > 100 µM (inactive) | GI50 (A498): > 100 µM (inactive) | GI50 (OVCAR-5): > 100 µM (inactive) | GI50 (SR): 21 µM (inactive) | GI50 (SF-539): > 100 µM (inactive) | GI50 (OVCAR-8): > 100 µM (inactive) | GI50 (SNB-78): > 100 µM (inactive) | GI50 (A549): 50.4 µM (inactive) | GI50 (SK-OV-3): > 100 µM (inactive) | GI50 (M14): > 100 µM (inactive) | GI50 (SF-268): > 100 µM (inactive) | GI50 (SW-620): 55.8 µM (inactive) | GI50 (SNB-75): > 100 µM (inactive) | GI50 (DMS-114): > 100 µM (inactive) | GI50 (LXFL 529): > 100 µM (inactive) | GI50 (HCT-15): 70.3 µM | GI50 (NCI-H23): 72.4 µM (inactive) | GI50 (UACC-257): > 100 µM (inactive) | GI50 (SK-MEL-2): > 100 µM (inactive) | GI50 (HCT-116): 58.7 µM (inactive) | GI50 (K562): 30.8 µM (inactive) | GI50 (UACC-62): > 100 µM (inactive) | GI50 (NCI-H460): > 100 µM (inactive) | GI50 (MOLT-4): 45.5 µM (inactive) | GI50 (CCRF-CEM): 23.4 µM (inactive) | GI50 (DLD-1): 50.4 µM (inactive) | GI50 (U-251): > 100 µM (inactive) | GI50 (HL-60): 34.1 µM (inactive) | GI50 (KM12): 83 µM (inactive) | GI50 (UO-31): 71.6 µM (inactive) | GI50 (HOP-92): > 100 µM (inactive) | GI50 (RPMI-8226): 30.3 µM (inactive) | GI50 (CAKI-1): 66.2 µM (inactive) | GI50 (Malme-3M): > 100 µM (inactive) | GI50 (SK-MEL-5): > 100 µM (inactive) | GI50 (HOP-62): > 100 µM (inactive) | GI50 (NCI-H522): 64.1 µM (inactive) | GI50 (RXF 393): 37.3 µM (inactive) | GI50 (IGROV-1): > 100 µM (inactive) | GI50 (HOP-18): > 100 µM (inactive) | GI50 (M19-MEL): 56.8 µM (inactive) | GI50 (OVCAR-3): 55.6 µM (inactive) | GI50 (NCI-H226): > 100 µM (inactive)

COc1ccc(CNc2nc3c(NC(C)=O)cc(C(F)(F)F)cc3nc2-c2ccccc2)cc1OC
GI50 (OVCAR-4): 10.6 µM (inactive) | GI50 (LOX IMVI): > 100 µM (inactive) | GI50 (SN12C): > 100 µM (inactive) | GI50 (SK-MEL-28): 19 µM (inactive) | GI50 (SNB-19): 45.6 µM (inactive) | GI50 (HT-29): > 100 µM (inactive) | GI50 (EKVX): 35.6 µM (inactive) | GI50 (786-0): 37.1 µM (inactive) | GI50 (COLO 205): > 100 µM (inactive) | GI50 (TK-10): 32.1 µM (inactive) | GI50 (DMS-273): 21.9 µM (inactive) | GI50 (SF-295): 50 µM (inactive) | GI50 (KM-20L2): > 100 µM (inactive) | GI50 (HCC 2998): > 100 µM (inactive) | GI50 (A498): > 100 µM (inactive) | GI50 (OVCAR-5): > 100 µM (inactive) | GI50 (SF-539): 25.2 µM (inactive) | GI50 (OVCAR-8): 56.8 µM (inactive) | GI50 (XF498): 78 µM (inactive) | GI50 (SNB-78): 10.7 µM (inactive) | GI50 (A549): 47.9 µM (inactive) | GI50 (SK-OV-3): 40.7 µM (inactive) | GI50 (M14): 42.8 µM (inactive) | GI50 (SF-268): 5.68 µM (inactive) | GI50 (SW-620): 77.3 µM (inactive) | GI50 (SNB-75): 1.32 µM (inactive) | GI50 (DMS-114): 15.2 µM (inactive) | GI50 (LXFL 529): 16.4 µM (inactive) | GI50 (HCT-15): > 100 µM | GI50 (NCI-H23): 59 µM (inactive) | GI50 (UACC-257): > 100 µM (inactive) | GI50 (SK-MEL-2): 57.7 µM (inactive) | GI50 (HCT-116): 48.4 µM (inactive) | GI50 (K562): > 100 µM (inactive) | GI50 (UACC-62): 45.3 µM (inactive) | GI50 (NCI-H460): > 100 µM (inactive) | GI50 (MOLT-4): > 100 µM (inactive) | GI50 (CCRF-CEM): > 100 µM (inactive) | GI50 (DLD-1): > 100 µM (inactive) | GI50 (U-251): 93.1 µM (inactive) | GI50 (HL-60): > 100 µM (inactive) | GI50 (KM12): > 100 µM (inactive) | GI50 (UO-31): 7.45 µM (inactive) | GI50 (RPMI-8226): 68.5 µM (inactive) | GI50 (CAKI-1): 31.6 µM (inactive) | GI50 (Malme-3M): 95.3 µM (inactive) | GI50 (SK-MEL-5): 21.5 µM (inactive) | GI50 (HOP-62): 42.1 µM (inactive) | GI50 (NCI-H522): 2.69 µM (inactive) | GI50 (IGROV-1): > 100 µM (inactive) | GI50 (M19-MEL): > 100 µM (inactive) | GI50 (OVCAR-3): 93.1 µM (inactive)

COC(=O)C1C(/C=C/c2ccoc2)ON2CCC[C@@H]12 (stereo not given in full)
GI50 (OVCAR-4): > 100 µM (inactive) | GI50 (LOX IMVI): > 100 µM (inactive) | GI50 (SN12C): > 100 µM (inactive) | GI50 (SK-MEL-28): > 100 µM (inactive) | GI50 (SNB-19): > 100 µM (inactive) | GI50 (HT-29): > 100 µM (inactive) | GI50 (EKVX): > 100 µM (inactive) | GI50 (786-0): > 100 µM (inactive) | GI50 (COLO 205): > 100 µM (inactive) | GI50 (TK-10): > 100 µM (inactive) | GI50 (DMS-273): 36.2 µM (inactive) | GI50 (SF-295): > 100 µM (inactive) | GI50 (ACHN): 67.8 µM (inactive) | GI50 (KM-20L2): > 100 µM (inactive) | GI50 (HCC 2998): > 100 µM (inactive) | GI50 (OVCAR-5): > 100 µM (inactive) | GI50 (SR): > 100 µM (inactive) | GI50 (SF-539): > 100 µM (inactive) | GI50 (OVCAR-8): > 100 µM (inactive) | GI50 (SNB-78): > 100 µM (inactive) | GI50 (A549): > 100 µM (inactive) | GI50 (M14): > 100 µM (inactive) | GI50 (SF-268): > 100 µM (inactive) | GI50 (SW-620): > 100 µM (inactive) | GI50 (SNB-75): 87.5 µM (inactive) | GI50 (DMS-114): > 100 µM (inactive) | GI50 (LXFL 529): > 100 µM (inactive) | GI50 (NCI-H23): > 100 µM (inactive) | GI50 (UACC-257): > 100 µM (inactive) | GI50 (SK-MEL-2): > 100 µM (inactive) | GI50 (NCI-H460): > 100 µM (inactive) | GI50 (DLD-1): > 100 µM (inactive) | GI50 (U-251): > 100 µM (inactive) | GI50 (HL-60): > 100 µM (inactive) | GI50 (KM12): > 100 µM (inactive) | GI50 (UO-31): > 100 µM (inactive) | GI50 (HOP-92): > 100 µM (inactive) | GI50 (CAKI-1): > 100 µM (inactive) | GI50 (Malme-3M): 33.6 µM (inactive) | GI50 (HOP-62): > 100 µM (inactive) | GI50 (NCI-H522): > 100 µM (inactive) | GI50 (RXF 393): 47.8 µM (inactive) | GI50 (HOP-18): 70.3 µM (inactive) | GI50 (M19-MEL): > 100 µM (inactive) | GI50 (OVCAR-3): > 100 µM (inactive) | GI50 (NCI-H226): > 100 µM (inactive)
